A word on the IC50: it is the midpoint of a concentration-inhibition curve.

This passage reports selectivity ratio and IC50 results from paper PMC7412453, “SAR:s for the Antiparasitic Plant Metabolite Pulchrol. 1. The Benzyl Alcohol Functionality” (Molecules, 2020).

Read-outs that look alike come from different tables or passages of the source.

The subject of data set [1] is L. brasiliensis promastigotes. Nature of the data set: Leishmanicidal activity against L. brasiliensis promastigotes (XTT). As to conditions: for IC50: 72 h, read-out: L. brasiliensis IC50. As for the experimental part:
(§1) Evaluations against Leishmania parasites: Promastigotes of Leishmania-Leishmania: L. amazonensis, Clone 1, NHOM-BR-76-LTB-012 (Lma, donated by the Paul Sabatier Université, France) and Leishmania-Viannia: L. braziliensis M2904 C192 RJA (M2904, donated by Dr. Jorge Arévalo from Universidad Peruana Cayetano Heredia, Peru). All strains were cultured in Schneider’s insect medium, (pH 6.2) supplemented with 10% FBS and incubated at 26 °C. Medium changes were made every 72 h to maintain a viable parasitic population. Leishmanicidal activity was determined according to Williams with some modifications. Samples were dissolved in DMSO (maximum final concentration 1%) at 10 mg/mL. Promastigotes in logarithmic phase of growth, at the concentration 3 × 10^6 parasites/mL, were distributed (100 μL/well) in 96-well flat bottom microtiter plates. Samples with different concentrations (3.1–100 μg/mL) were added (100 μL). […] Assays were performed in triplicates. The microwell plates were incubated for 72 h at 26 °C. After incubation, a solution of XTT (1 mg/mL) in PBS (pH 7.0 at 37 °C) with PMS (0.06 mg/mL) was added (50 μL/well), and incubated for 3 h at 26 °C. The optical density of each well was measured and the IC50 values calculated.

Data set [2] concerns L. amazoniensis promastigotes. Nature of the data set: Leishmanicidal activity against L. amazoniensis promastigotes (XTT). The conditions noted are these: for IC50: Leishmania amazonensis, 72 h, read-out: L. amazoniensis IC50. Here is the method:
as §1, with “All” for “Evaluations against Leishmania parasites: Promastigotes of Leishmania-Leishmania: L. amazonensis, Clone 1, NHOM-BR-76-LTB-012 (Lma, donated by the Paul Sabatier Université, France) and Leishmania-Viannia: L. braziliensis M2904 C192 RJA (M2904, donated by Dr. Jorge Arévalo from Universidad Peruana Cayetano Heredia, Peru). All”
(In general: Tetrazolium assays rely on reduction of a dye to a coloured formazan, in cell work by metabolically active cells.)

Data set [3] can be described thus: Cytotoxicity in RAW cells (Resazurin). Type of data set: cell-based, murine. The conditions noted are these: mouse. Here is the method:
Evaluations against RAW cells: The Raw 264.7 murine macrophage cell line was purchased from the American Type Culture Collection (ATCC-TIB71). The cells were maintained in DMEM-HG medium supplemented with 10% fetal bovine serum, 100 U/mL of penicillin and 100 μg/mL of streptomycin, and sodium bicarbonate (2.2 g/L) in humidified atmosphere at 37 °C with 5% CO2. Samples were prepared as described above and added (in 100 μL DMSO) at different concentrations (6.2–200 μg/mL). Medium blank, control drugs and cell growth controls were included to evaluate cell viability. The plates were incubated for 72 h at 37 °C with 5% CO2. After incubation for the indicated time, the cells were washed, after which 10 μL of Resazurin reagent (2.0 mM) was added. They were further incubated at 37 °C for 3 h in a humidified incubator. The IC50 values were assessed using a fluorometric reader (540 nm excitation, 590 nm emission) and the Gen5 software. All assays were performed in triplicate.
On the technique in general: Resazurin is reduced to fluorescent resorufin, in cell work by metabolically active cells.

In another data set the test system is T. cruzi epimastigotes. Nature of the data set: Trypanocidal activity against T. cruzi epimastigotes (XTT). Type of data set: cell-based, Trypanosoma cruzi. As to conditions: for IC50: Trypanosoma cruzi, read-out: T. cruzi IC50; for selectivity ratio at 72 h: mouse (RAW 264.7 cells) / Trypanosoma cruzi (epimastigotes), RAW cell IC50 / T. cruzi IC50, read-out: T. cruzi SI (selectivity index, cytotoxicity/anti-protozoal activity). Here is the method:
Trypanocidal activity was determined according to Muelas-Serrano with some modifications. […] Benznidazol (3.1–100 μg/mL) was used as the control drug. Assays were performed in triplicates.

The mark [4] stands for this setting: epimastigotes, 72 h at 26 °C, XTT, triplicates.
The mark [5] stands for this setting: L. brasiliensis SI (selectivity index, cytotoxicity/anti-protozoal activity), RAW cell IC50 / L. brasiliensis IC50.
Setting [6] is: L. amazoniensis SI (selectivity index, cytotoxicity/anti-protozoal activity), RAW cell IC50 / L. amazoniensis IC50.
The mark [7] stands for this setting: RAW cells, 72 h at 37 °C, Resazurin, triplicate, read-out: Cytotoxicity IC50.

`COc1ccc2c(c1)-c1cc(C)ccc1C(C)(C)O2` [3a, 2-Methoxy-6,6,9-trimethyl-6H-benzo[c]chromene]: the selectivity ratio at 72 h in data set [1] turned out to be 1.4; in data set [2] it was 1.2; in the data set on T. cruzi epimastigotes it was 2. Further, the IC50 turned out to be 69.6 ± 5.9 µM in data set [1], 85.3 ± 5.9 µM in data set [2] and 51.1 ± 17.7 µM in the data set on T. cruzi epimastigotes (setting [4]). For the same molecule, half-maximal inhibition in data set [3] (IC50 at 72 h) was put at 99.5 ± 22 µM.
Consider `COc1ccc2c(c1)-c1cc(CCl)ccc1C(C)(C)O2` [3b, 9-(chloromethyl)-2-methoxy-6,6-dimethyl-6H-benzo[c]chromene], for which the values for the IC50 (in data set [1]; in data set [2]; in the data set with T. cruzi epimastigotes (setting [4])) were 17.1 ± 0.1 µM, 35 ± 2.8 µM and 38.1 ± 0.4 µM, respectively. Besides, the selectivity ratio at 72 h in data set [1] (setting [5]) came out at 3.5; in data set [2] (setting [6]), 1.7; in the data set with T. cruzi epimastigotes, 1.6. This molecule also registered an IC50 at 72 h in data set [3] of 59.2 ± 14.5 µM.
Take `COCc1ccc2c(c1)-c1cc(OC)ccc1OC2(C)C` [3c, 2-Methoxy-9-(methoxymethyl)-6,6-dimethyl-6H-benzo[c]chromene]: the IC50 in data set [1] came to 49.2 ± 15.8 µM; in data set [2], 56.3 ± 12 µM; in the data set on T. cruzi epimastigotes (setting [4]) it was 24.6 ± 3.5 µM. Moreover, the selectivity ratio at 72 h in data set [1] (setting [5]) amounted to 0.7; in data set [2] (setting [6]), 0.6; in the data set on T. cruzi epimastigotes it was 1.3. In data set [3], the IC50 at 72 h was 33.1 ± 2.1 µM.
As to `COc1ccc2c(c1)-c1cc(COC(C)C)ccc1C(C)(C)O2` [3d, 9-(Isopropoxymethyl)-2-methoxy-6,6-dimethyl-6H-benzo[c]chromene], the selectivity ratio at 72 h was found to be 0.9 in data set [1], 0.9 in data set [2] and 2.5 in the data set on T. cruzi epimastigotes. Further, the IC50 in data set [1] was 35.2 ± 3.2 µM; in data set [2] it was 35.2 ± 3.8 µM; with T. cruzi epimastigotes (setting [4]), 12.9 ± 0.3 µM. The IC50 at 72 h in data set [3] (setting [7]) worked out at 32 ± 0.3 µM.
In the case of `COc1ccc2c(c1)-c1cc(CNC(C)C)ccc1C(C)(C)O2` [3f, N-((2-Methoxy-6,6-dimethyl-6H-benzo[c]chromen-9-yl)methyl)propan-2-amine], the figures for the IC50 (in data set [1]; in data set [2]; in the data set with T. cruzi epimastigotes (setting [4])) were 83.5 ± 32.1 µM, 67.8 ± 13.8 µM and 70.6 ± 9.6 µM, respectively. Moreover, the selectivity ratio at 72 h (in data set [1] (setting [5]); in data set [2] (setting [6]); in the data set on T. cruzi epimastigotes) was 0.4 each time. Besides, the half-maximal inhibitory concentration (IC50) at 72 h in data set [3] came to 29.5 ± 9.6 µM.
As to `COc1ccc2c(c1)-c1cc(CNCC(C)C)ccc1C(C)(C)O2` [3g, N-((2-Methoxy-6,6-dimethyl-6H-benzo[c]chromen-9-yl)methyl)-2-methylpropan-1-amine], the results for the IC50 (in data set [1]; in data set [2]; with T. cruzi epimastigotes (setting [4])) were 25.8 ± 6.2 µM, 15.4 ± 3.1 µM and 15.4 ± 4 µM, respectively. The selectivity ratio at 72 h in data set [1] (setting [5]) amounted to 0.5; in data set [2] (setting [6]), 0.8; with T. cruzi epimastigotes, 0.8. Half-maximal inhibition in data set [3] (IC50 at 72 h) was put at 12.3 ± 1.2 µM.
Regarding `COc1ccc2c(c1)-c1cc(CNCCC(C)C)ccc1C(C)(C)O2` [3h, N-((2-Methoxy-6,6-dimethyl-6H-benzo[c]chromen-9-yl)methyl)-3-methylbutan-1-amine], the IC50 was 15.9 ± 0.9 µM in data set [1], 17.7 ± 7.4 µM in data set [2] and 5.9 ± 1.2 µM in the data set on T. cruzi epimastigotes (setting [4]). Besides, the selectivity ratio at 72 h in data set [1] (setting [5]) came out at 0.5; in data set [2] (setting [6]), 0.4; with T. cruzi epimastigotes it was 1.3. In addition, the IC50 at 72 h in data set [3] is 7.4 ± 2.4 µM.
On to `COc1ccc2c(c1)-c1cc(COC(C)=O)ccc1C(C)(C)O2` [4a, (2-Methoxy-6,6-dimethyl-6H-benzo[c]chromen-9-yl)methyl acetate], for which the IC50 in data set [1] came to 28.8 ± 0.3 µM; in data set [2], 26.9 ± 0.6 µM; in the data set on T. cruzi epimastigotes (setting [4]), 14.4 ± 1.6 µM. Further, the selectivity ratio at 72 h in data set [1] (setting [5]) is 1.1; in data set [2] (setting [6]), 1.2; in the data set on T. cruzi epimastigotes, 2.3. The molecule further yielded an IC50 at 72 h in data set [3] of 32.7 ± 22.4 µM.
For `COc1ccc2c(c1)-c1cc(COC(=O)C(C)C)ccc1C(C)(C)O2` [4b, (2-Methoxy-6,6-dimethyl-6H-benzo[c]chromen-9-yl)methyl isobutyrate], the concentration for half-maximal inhibition (IC50) worked out at 17.6 ± 0.9 µM in data set [1], 26.7 ± 2.4 µM in data set [2] and 8.8 ± 0.9 µM in the data set on T. cruzi epimastigotes (setting [4]). Also, the selectivity ratio at 72 h was found to be 1.5 in data set [1] (setting [5]), 1 in data set [2] (setting [6]) and 3 in the data set on T. cruzi epimastigotes. The molecule further came in with an IC50 at 72 h in data set [3] of 26.4 ± 5.9 µM.
For `COc1ccc2c(c1)-c1cc(COC(=O)C(C)(C)C)ccc1C(C)(C)O2` [4c, (2-Methoxy-6,6-dimethyl-6H-benzo[c]chromen-9-yl)methyl pivalate], the selectivity ratio at 72 h in data set [1] was 1.1; in data set [2], 1; in the data set with T. cruzi epimastigotes it was 3. The figures for the IC50 (in data set [1]; in data set [2]; in the data set with T. cruzi epimastigotes (setting [4])) were 17.4 ± 1.7 µM, 20.5 ± 0.6 µM and 6.4 ± 0.1 µM, respectively. The IC50 at 72 h in data set [3] (setting [7]) came to 19.8 ± 0.9 µM.
Take `CCCC(=O)OCc1ccc2c(c1)-c1cc(OC)ccc1OC2(C)C` [4d, (2-Methoxy-6,6-dimethyl-6H-benzo[c]chromen-9-yl)methyl butyrate]: the results for the IC50 (in data set [1]; in data set [2]; with T. cruzi epimastigotes (setting [4])) were 57.8 ± 2.4 µM, 79.3 ± 9.4 µM and 16.2 ± 3.2 µM, respectively. For the same molecule, the selectivity ratio at 72 h in data set [1] (setting [5]) worked out at 1.8; in data set [2] (setting [6]) it was 1.3; with T. cruzi epimastigotes it was 6.4. For the same molecule, in data set [3], the midpoint of inhibition, the IC50 at 72 h, lay at 103 ± 35.3 µM.
Regarding `COc1ccc2c(c1)-c1cc(COC(=O)CC(C)C)ccc1C(C)(C)O2` [4e, (2-Methoxy-6,6-dimethyl-6H-benzo[c]chromen-9-yl)methyl 3-methylbutanoate], the values for the IC50 (in data set [1]; in data set [2]; in the data set on T. cruzi epimastigotes (setting [4])) were 13.1 ± 0.4 µM, 14.5 ± 0.1 µM and 4.2 ± 1.1 µM, respectively. Moreover, the selectivity ratio at 72 h in data set [1] (setting [5]) was determined as 2.2; in data set [2] (setting [6]), 1.9; with T. cruzi epimastigotes, 6.7. The molecule further yielded an IC50 at 72 h in data set [3] of 28.2 ± 9 µM.
Consider `COc1ccc2c(c1)-c1cc(COC(=O)CC(C)(C)C)ccc1C(C)(C)O2` [4f, (2-Methoxy-6,6-dimethyl-6H-benzo[c]chromen-9-yl)methyl 3,3-dimethylbutanoate], for which the IC50 turned out to be 20 ± 4.2 µM in data set [1], 19.5 ± 0.8 µM in data set [2] and 5.7 ± 0.3 µM in the data set with T. cruzi epimastigotes (setting [4]). The selectivity ratio at 72 h in data set [1] (setting [5]) worked out at 1; in data set [2] (setting [6]), 1; with T. cruzi epimastigotes, 3.3. In data set [3], this molecule came in with an IC50 at 72 h of 19 ± 3 µM.
In the case of `CCCCCC(=O)OCc1ccc2c(c1)-c1cc(OC)ccc1OC2(C)C` [4g, (2-Methoxy-6,6-dimethyl-6H-benzo[c]chromen-9-yl)methyl hexanoate], the selectivity ratio at 72 h in data set [1] is 1.9; in data set [2] it was 1.2; in the data set on T. cruzi epimastigotes, 2.3. In addition, the IC50 turned out to be 27.7 ± 0.3 µM in data set [1], 42.3 ± 8.7 µM in data set [2] and 22.8 ± 5.7 µM in the data set with T. cruzi epimastigotes (setting [4]). Besides, in data set [3] (setting [7]), the IC50 at 72 h came out at 52.1 ± 8.1 µM.
As to `O=C(Cn1ccnc1[N+](=O)[O-])NCc1ccccc1` [Benznidazole, reference compound], in data set [3] (setting [7]), the IC50 at 72 h amounted to 74.7 ± 9.1 µM. Also, the IC50 in the data set with T. cruzi epimastigotes (72 h) turned out to be 19.2 ± 7.7 µM. In addition, in the data set with T. cruzi epimastigotes, the selectivity ratio at 72 h was determined as 3.9.
`CCCCCCCCCCCCCCCCOP(=O)([O-])OCC[N+](C)(C)C` [Miltefosine, reference compound]: the IC50 in data set [1] amounted to 13 ± 1.2 µM. Besides, the 50% inhibitory concentration (IC50) at 72 h in data set [3] (RAW 264.7 macrophage cells (ATCC-TIB71), RAW cells, 72 h at 37 °C, Resazurin, triplicate, read-out: Cytotoxicity IC50) is 76.6 ± 3.2 µM.
